Molecules are shown by their SMILES. pIC50: −log10 of the molar value. Where two headings read alike, the source gives them in different places. A value given as a limit tells only on which side of the number the result lay.

The source of these data is patent publication US8785457B2 (Cellzome Limited, priority 2009, dated 2014).

One assay deals with T1, mTOR (Homo sapiens, UniProt P42345).
T1 construct: endogenous in cells; host or cells: Jurkat, clone E6-1 (ATCC TIB-152) cell lysate
As to the kind of experiment: mTOR kinobeads assay (competitive binding in Jurkat cell lysate, immunodetection). The conditions noted are these: kinobeads assay. A digest of the protocol:
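IC50 derived from dose-response curves of mTOR captured on immobilized phenylmorpholin-chromen beads, detected by antibody dot blot with infrared fluorescence.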

For assay [1], the system named is S6RP serine-240/244 phosphorylation. As to the kind of experiment: In vitro Phospho-S6 cellular assay (pS6RP S240/244) in HEK293T/17 cells. The conditions noted are these: Homo sapiens, 2 hours, read-out: pS6 IC50. In kind it is cell-based. In short, it runs like this: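 HEK293T/17 cells were seeded at 40,000 (pS6RP) or 80,000 (pAkt) cells/well in DMEM with 2% FCS. They were exposed to 8 compound concentrations (0.1% DMSO) for 2 h at 37 °C and then lysed. Phosphoprotein was quantified by MesoScale electrochemiluminescence sandwich immunoassay, and the sigmoidal variable-slope dose-response was fitted.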

Where [2] appears, read: Table 6, read-out: Inhibition values (IC50) mTOR.
The mark [3] stands for this setting: Table 4, read-out: Inhibition values (IC50) mTor.

As to `CCNC(=O)Nc1ccc(-c2nc3c(c(N4CCOC[C@@H]4C)n2)CCN(C)C3)c(F)c1` [Example 110, (S)-1-ethyl-3-(3-fluoro-4-(7-methyl-4-(3-methylmorpholino)-5,6,7,8-tetrahydropyrido[3,4-d]pyrimidin-2-yl)phenyl)urea], the results for the pIC50 (at mTOR (setting [2]); in assay [1]) were 6.00 to 7.00 and 6.72, respectively.

`CCOC(=O)N1Cc2nc(-c3ccc(NC(=O)NCCF)cc3)nc(N3CCOC[C@@H]3C)c2C1` [Example 120, (S)-ethyl 2-(4-(3-(2-fluoroethyl)ureido)phenyl)-4-(3-methylmorpholino)-5H-pyrrolo[3,4-d]pyrimidine-6(7H)-carboxylate]: the negative logarithm of the IC50 (pIC50) on mTOR (setting [2]) is more than 7.00; in assay [1], 7.60.

`CC(C)CN1Cc2nc(-c3ccc(NC(=O)NC4CC4)cc3)nc(N3CCOC[C@@H]3C)c2C1` [Example 65, (S)-1-cyclopropyl-3-(4-(6-isobutyl-4-(3-methylmorpholino)-6,7-dihydro-5H-pyrrolo[3,4-d]pyrimidin-2-yl)phenyl)urea]: the pIC50 is more than 7.00 at mTOR (setting [2]) and 6.83 in assay [1].

Take `CCNC(=O)Nc1ccc(-c2nc3c(c(N4CCOCC4)n2)CCN(C(=O)OCC)C3)cc1` [Example 96, ethyl 2-(4-(3-ethylureido)phenyl)-4-morpholino-5,6-dihydropyrido[3,4-d]pyrimidine-7(8H)-carboxylate]: the pIC50 on mTOR (setting [2]) was 6.00 to 7.00; in assay [1], 7.30.

With `CCOC(=O)N1CCc2c(nc(-c3ccc(NC(=O)NC4CC4)cc3)nc2N2CCOC[C@@H]2C)C1` [Example 78, (S)-ethyl 2-(4-(3-cyclopropylureido)phenyl)-4-(3-methylmorpholino)-5,6-dihydropyrido[3,4-d]pyrimidine-7(8H)-carboxylate], the pIC50 is more than 7.00 on mTOR (setting [2]) and 7.46 in assay [1].

As for `CCNC(=O)Nc1ccc(-c2nc3c(c(N4CCOCC4)n2)CN(C(=O)C(C)(C)C)C3)cc1` [Example 100, 1-ethyl-3-(4-(4-morpholino-6-pivaloyl-6,7-dihydro-5H-pyrrolo[3,4-d]pyrimidin-2-yl)phenyl)urea], the values for the pIC50 (at mTOR (setting [2]); in assay [1]) were 6.00 to 7.00 and 6.69, respectively.

For the molecule `CCNC(=O)Nc1ccc(-c2nc3c(c(N4CCOC[C@@H]4C)n2)CN(C2CCN(C(=O)OC)CC2)C3)cc1F` [Example 122, (S)-methyl 4-(2-(4-(3-ethylureido)-3-fluorophenyl)-4-(3-methylmorpholino)-5H-pyrrolo[3,4-d]pyrimidin-6(7H)-yl)piperidine-1-carboxylate], the results for the pIC50 (at mTOR (setting [2]); in assay [1]) were 6.00 to 7.00 and 6.76, respectively.

As for `C[C@H]1COCCN1c1nc(-c2ccc(NC(=O)Nc3cccc(O)n3)cc2)nc2c1CN(C)C2` [Example 80, (S)-1-(6-hydroxypyridin-2-yl)-3-(4-(6-methyl-4-(3-methylmorpholino)-6,7-dihydro-5H-pyrrolo[3,4-d]pyrimidin-2-yl)phenyl)urea], the figures for the negative logarithm of the IC50 (pIC50) (at mTOR (setting [2]); in assay [1]) were more than 7.00 and 7.05, respectively.

Regarding `CCNC(=O)Nc1ccc(-c2nc3c(c(N4CCOCC4)n2)CCN(C(=O)NCC)C3)cc1` [Example 94, N-ethyl-2-(4-(3-ethylureido)phenyl)-4-morpholino-5,6-dihydropyrido[3,4-d]pyrimidine-7(8H)-carboxamide], the pIC50 on mTOR (setting [2]) was 6.00 to 7.00; in assay [1] it was 6.25.

With `CCNC(=O)Nc1ncc(-c2nc3c(c(N4CCOC[C@@H]4C)n2)CCN(C)C3)s1` [Example 106, (S)-1-ethyl-3-(5-(7-methyl-4-(3-methylmorpholino)-5,6,7,8-tetrahydropyrido[3,4-d]pyrimidin-2-yl)thiazol-2-yl)urea], the pIC50 at mTOR (setting [2]) is 6.00 to 7.00; in assay [1] it was 6.53.

As for `CCNC(=O)Nc1ccc(-c2nc3c(c(N4CCOCC4)n2)CN(C)C3)cc1` [Example 69, 1-Ethyl-3-(4-(6-methyl-4-morpholino-6,7-dihydro-5H-pyrrolo[3,4-d]pyrimidin-2-yl)phenyl)urea], the values for the pIC50 (on mTOR (setting [2]); in assay [1]) were more than 7.00 and 6.68, respectively.

For `CCNC(=O)Nc1ccc(-c2nc3c(c(N4CCOC[C@@H]4C)n2)CN(C(C)C)C3)cc1` [Example 74, (S)-1-ethyl-3-(4-(6-isopropyl-4-(3-methylmorpholino)-6,7-dihydro-5H-pyrrolo[3,4-d]pyrimidin-2-yl)phenyl)urea], the pIC50 on mTOR (setting [2]) was more than 7.00; in assay [1], 6.96.

With `CCNC(=O)Nc1ccc(-c2nc3c(c(N4CCOC[C@@H]4C)n2)CCN(C(C)=O)C3)cc1` [Example 59, (S)-1-(4-(7-acetyl-4-(3-methylmorpholino)-5,6,7,8-tetrahydropyrido[3,4-d]pyrimidin-2-yl)phenyl)-3-ethylurea], the pIC50 was more than 7.00 at mTOR (setting [3]), more than 7.00 at mTOR (setting [2]) and 6.80 in assay [1].

As for `CCNC(=O)Nc1ccc(-c2nc3c(c(N4CCOC[C@@H]4C)n2)CCN(CC(C)C)C3)cc1.O=CO` [Example 76, (S)-1-ethyl-3-(4-(7-isobutyl-4-(3-methylmorpholino)-5,6,7,8-tetrahydropyrido[3,4-d]pyrimidin-2-yl)phenyl)urea formate], the pIC50 on mTOR (setting [2]) was more than 7.00; in assay [1], 7.02.

Take `CCNC(=O)N1CCc2c(nc(-c3ccc(NC(=O)NC4CC4)cc3)nc2N2CCOC[C@@H]2C)C1` [Example 88, (S)-2-(4-(3-cyclopropylureido)phenyl)-N-ethyl-4-(3-methylmorpholino)-5,6-dihydropyrido[3,4-d]pyrimidine-7(8H)-carboxamide]: the negative-log IC50 (pIC50) on mTOR (setting [2]) is more than 7.00; in assay [1], 7.08.

As to `C[C@H]1COCCN1c1nc(-c2ccc(NC(=O)NCCO)cc2)nc2c1CN(C)C2` [Example 73, (S)-1-(2-hydroxyethyl)-3-(4-(6-methyl-4-(3-methylmorpholino)-6,7-dihydro-5H-pyrrolo[3,4-d]pyrimidin-2-yl)phenyl)urea], the pIC50 at mTOR (setting [2]) was more than 7.00; in assay [1] it was 6.37.

In the case of `CCOC(=O)N1Cc2nc(-c3ccc(NC(=O)Nc4ccncc4)cc3)nc(N3CCOC[C@@H]3C)c2C1` [Example 121, (S)-ethyl 4-(3-methylmorpholino)-2-(4-(3-(pyridin-4-yl)ureido)phenyl)-5H-pyrrolo[3,4-d]pyrimidine-6(7H)-carboxylate], the pIC50 was more than 7.00 at mTOR (setting [2]) and 7.48 in assay [1].

As to `CCNC(=O)Nc1ccc(-c2nc3c(c(N4CCOC[C@@H]4C)n2)CN(C)C3)cc1F` [Example 85, (S)-1-ethyl-3-(2-fluoro-4-(6-methyl-4-(3-methylmorpholino)-6,7-dihydro-5H-pyrrolo[3,4-d]pyrimidin-2-yl)phenyl)urea], the negative logarithm of the IC50 (pIC50) at mTOR (setting [2]) was 6.00 to 7.00; in assay [1], 6.06.

Regarding `C[C@H]1COCCN1c1nc(-c2ccc(NC(=O)NC3CC3)cc2)nc2c1CCN(C(=O)C1CC1)C2` [Example 60, (S)-1-(4-(7-(cyclopropanecarbonyl)-4-(3-methylmorpholino)-5,6,7,8-tetrahydropyrido[3,4-d]pyrimidin-2-yl)phenyl)-3-cyclopropylurea], the results for the negative logarithm of the IC50 (pIC50) (on mTOR (setting [3]); at mTOR (setting [2]); in assay [1]) were more than 7.00, more than 7.00 and 7.43, respectively.

Regarding `C[C@H]1COCCN1c1nc(-c2ccc(NC(N)=O)cc2)nc2c1CN(C)C2` [Example 71, (S)-1-(4-(6-methyl-4-(3-methylmorpholino)-6,7-dihydro-5H-pyrrolo[3,4-d]pyrimidin-2-yl)phenyl)urea], the pIC50 at mTOR (setting [2]) was more than 7.00; in assay [1], 6.16.
